According to patent US8895623B2 (priority 2011, dated 2014):
Where two headings read alike, the source gives them in different places.

How the values were obtained:
thrombocytes [1] = assay: conjugation in thrombocytes in presence of biogenic amine transport inhibitors
[2] = oral bioavailability in humans; type: in vivo
Text: The principal route of metabolic clearance of 3-[(1R,2R)-3-(dimethylamino)-1-ethyl-2-methylpropyl]phenol in most species, including humans, is glucuronidation, and this route was therefore considered to be very likely to be dominant for 3-[(1S,2S)-3-(dimethylamino)-1-ethyl-2-methylpropyl]phenol as well.

[3] = loss of compound on incubation in heparinised whole human blood; type: in vitro ADME; settings: for loss of added compound: whole human blood
Text: The remaining possibility was that the high clearance was due to a stereo-selective biochemical process occurring in blood itself. If true, then it would be expected that 3-[(1S,2S)-3-(dimethylamino)-1-ethyl-2-methylpropyl]phenol, but not 3-[(1R,2R)-3-(dimethylamino)-1-ethyl-2-methylpropyl]phenol, would be metabolised in a time-, concentration-, and temperature-dependent manner by whole human blood.
To test the hypothesis, blood was withdrawn from healthy volunteers, heparinised (final heparin concentration, 15 U/ml), and spiked with 1 μM 3-[(1S,2S)-3-(dimethylamino)-1-ethyl-2-methylpropyl]phenol or 3-[(1R,2R)-3-(dimethylamino)-1-ethyl-2-methylpropyl]phenol. It was mixed on a rotary mixer at 37° C. in closed test-tubes. The rate of loss of the added compounds was determined by taking aliquots at regular intervals, centrifuging at 5000 g for 5 minutes, and analysing the supernatant.
Supernatants were alkalinized by addition of aqueous 25% ammonia (50 μl/ml plasma), spiked with an internal standard, and extracted twice with tertiary butyl methyl ether (2 ml per ml plasma). The ether layers were combined and dried in a stream of nitrogen before being reconstituted in 150 μl chromatography buffer (see below).
All assay supernatants were analysed by reversed-phase HPLC on a Inertsil 5 ODS 2 column (250×4.6 mm). The HPLC system consisted of equipment from Dionex or Gynkotek. The auto-sampler was a GINA 50T unit (Gynkotek); the pump system was type P580A LPG (Gynkotek); the column was thermostatted at 30° C. using a SHT 585 unit (Gynkotek). Effluents were generally monitored for fluorescence emission at 300 nm after excitation at 215 nm using a RF 2000 detector (Dionex); the wavelengths for excitation and emission were chosen to be optimal for 3-[(1S,2S)-3-(dimethylamino)-1-ethyl-2-methylpropyl]phenol or 3-[(1R,2R)-3-(dimethylamino)-1-ethyl-2-methylpropyl]-phenol. Chromatograms were evaluated using Chromeleon software version 6.11 (Dionex).
Generally, the samples were eluted using an isocratic solvent mixture. Sodium pentane-sulphonate was dissolved at 1.92 g/l (10 mM)=PSS; perchloric acid (PA) was 60% w/v. A mixture containing 900 ml PSS, 210 ml methanol, 80 ml tetrahydrofuran, and 0.1 ml PA was made, allowed to stand overnight, and degassed prior to passage over the column. The effluent was passed first through the UV detector, and then into the fluorescence detector.

stability to plasma = type: in vitro ADME
Text: Blood consists of plasma, plasma enzymes, and various blood cell types (erythrocytes, leukocytes, thrombocytes etc). 3-[(1S,2S)-3-(dimethylamino)-1-ethyl-2-methylpropyl]phenol was expected, and proven, to be stable to plasma. Of the blood cell types, thrombocytes (platelets) were expected to have the highest relevant enzymatic activity in SULT1A3, a sulphotransferase.

[4] = rate of microsomal oxidation in vitro; type: in vitro ADME; settings: hepatic microsomes
Text: The probability of different routes of metabolic clearance in vivo can be investigated by estimating the rates of the underlying oxidation or conjugation reactions in vitro using sub-cellular fractions such as hepatic microsomes. Because the rate of microsomal oxidation of 3-[(1S,2S)-3-(dimethylamino)-1-ethyl-2-methylpropyl]phenol could be shown to be very low, it was considered that oxidative metabolism was unlikely to be a significant metabolic clearance route for this molecule.

thrombocytes [5] = assay: incubation in thrombocyte-enriched plasma (sulphation by thrombocytes); type: in vitro ADME, human
Protocol: Thrombocyte (platelet-)enriched plasma can be prepared by centrifuging blood at 400 g for 10 minutes as this precipitates larger cells (erythrocytes, leukocytes).

male Sprague Dawley rats = assay: low intensity tail-flick test after intrathecal administration; type: in vivo, rat; settings: intrathecal (i.t.) 3.15 μg/animal, 20 min p. appl., mean±s.e.m., n=10
Protocol: Antinociceptive effects of 3-[(1S,2S)-3-(dimethylamino)-1-ethyl-2-methylpropyl]-phenol were evaluated in the low intensity tail-flick test after local drug application into the spinal cord of rats.
160 male Sprague Dawley rats (200 to 260 g body weight) from a commercial breeder (Janvier, Le Genest St Isle, France) were housed under standardized conditions: light/dark rhythm (06.00-18.00 h light, 18.00-06.00 h dark); room temperature 20-24° C.; relative air humidity 35-70%; 15 air changes per hour, air movement <0.2 m/sec. The animals were given water and feedstuff designed for rats/mice/hamsters from Nohrlin (Bad Salzuflen, FRG) ad libitum. They were kept in groups of six in Makrolon cages type 4. There were at least 5 days between the day of delivery and the day of testing.
The experiments were performed using a Tail-flick device from Rhema-Labortechnik (Hofheim/Ts., FRG). Before and after drug application, a radiant heat beam was focused onto the dorsal surface of the rat's tail about 2 to 4 cm apart from the root. […] The latency from switching on the lamp to tail withdrawal was measured. […]
The individual latencies were calculated as the percentage of the Maximum Possible Effect (% MPE) according to the following formula: % MPE=(latency−VTM)/(30sec−VTM)*100% VTM: mean pre-test value, 30 sec: cut off value.
Data were expressed as mean±s.e.m. of the respective animal group.

[6] = pharmacokinetics after intravenous administration in humans; type: in vivo; settings: for initial plasma concentrations: after intravenous administrations of equal doses, comparison of enantiomers; for elimination halftime: in humans, intravenous administration
Protocol: On examination of the pharmacokinetics of the two compounds after intravenous administration, it became clear that the rate of elimination of 3-[(1S,2S)-3-(dimethylamino)-1-ethyl-2-methylpropyl]phenol was much higher than that of 3-[(1R,2R)-3-(dimethylamino)-1-ethyl-2-methylpropyl]phenol, and higher even than could be explained on clearance of the total hepatic blood flow. […] In fact, the elimination halftime of 3-[(1S,2S)-3-(dimethylamino)-1-ethyl-2-methylpropyl]phenol was ca. 0.75 h.

[7] = in humans, known value; cited from earlier work

## CC[C@H](c1cccc(OS(=O)(=O)O)c1)[C@H](C)CN(C)C [3-[(1S,2S)-3-(dimethylamino)-1-ethyl-2-methylpropyl]phenol-sulphate]
Thrombocytes [1]; under any condition
  accumulation in pelleted thrombocytes: no accumulation

## CC[C@H](c1cccc(O)c1)[C@H](C)CN(C)C [3-[(1S,2S)-3-(dimethylamino)-1-ethyl-2-methylpropyl]phenol]
[2]
  oral bioavailability: effectively zero
  oral bioavailability or intravenous bioavailability: no relevant oral bioavailability or intravenous bioavailability
[3]; whole blood, net losses sub-linear
  concentration above which clearance process is saturable: above 2 μM
[3]; 1 μM, 37° C., over one hour
  loss of added compound: 35%
[3]; 6° C.
  loss of added compound: no loss
[3]; room temperature (24° C.)
  loss of added compound: 7%
Stability to plasma
  stability to plasma: stable
[4]
  rate of microsomal oxidation: very low
Thrombocytes [5]; estimated from concentration dependency of the reaction rate, read-out: Km of the process
  Km: 3.5 µM
Thrombocytes [5]; thrombocyte-enriched plasma from a given volume of blood, compared with whole blood
  loss on incubation in thrombocyte-enriched plasma: equivalent to that observed on incubation in the original volume of whole blood
Thrombocytes [1]; cocaine 10 μM, nomifensin 10 μM, amphetamine 100 μM, fluoxetine 10 μM, desipramine 100 μM
  rate of conjugation in presence of transport inhibitors: influenced neither
Male Sprague Dawley rats
  maximum antinociceptive effect: 59.71±2.94 % MPE
[6]
  initial plasma concentrations: essentially identical
  elimination halftime: ca. 0.75 h
[6]; humans, explains short elimination halftime
  clearance relative to hepatic blood flow: 5 fold the hepatic blood flow

## CC[C@H](c1ccc[14c](O)c1)[C@H](C)CN(C)C [14C-3-[(1S,2S)-3-(dimethylamino)-1-ethyl-2-methylpropyl]phenol]
Thrombocytes [5]; whole blood or thrombocyte-enriched plasma, eluted identically to synthetic sulphate on HPLC
  reaction products after incubation: only a single reaction product

## CC[C@@H](c1cccc(O)c1)[C@@H](C)CN(C)C [(-)-(1R,2R)-3-(3-dimethylamino-1-ethyl-2-methyl-propyl)-phenol, reference compound]
[3]; 1 μM, 37° C., over one hour
  loss of added compound: No loss
[4]
  rate of microsomal oxidation: similarly low
[7]
  oral bioavailability: ca. 33%
[6]
  initial plasma concentrations: essentially identical
  elimination halftime: ca. 3.2 h
